Laboratory results from patent publication US8558011B2, “Cold menthol receptor-1 antagonists” (Janssen Pharmaceutica, NV, priority 2010, dated 2013).
“And” between values parts separate entries of the source, which are not always exact repeats. Equal values may be shown once.

Biological target: T1, canine TRPM8 (Canis lupus familiaris, UniProt Q1A7N1)
T1 construct: expressed in transfected cells
Assay: In Vitro Canine TRPM8 Functional Assay (Ca2+-sensitive fluorescent dye, icilin activation, FLIPR/FDSS)
Assay type: cell-based
Settings: HEK293 cells stably expressing canine TRPM8, icilin activation; for IC50: eight-point dose-response; for % I (0.5 μM): compound at 0.5 μM; for % I (1 μM): compound at 1 μM
Procedure: The functional activity of compounds of Formula (I) was determined by measuring changes in intracellular calcium concentration using a Ca^2+-sensitive fluorescent dye. The changes in fluorescent signal were monitored by a fluorescence plate reader, either a FLIPR™ (Molecular Devices) or FDSS (Hamamatsu).
HEK293 cells stably expressing canine TRPM8 were routinely grown as monolayers in Dulbecco's minimum essential medium supplemented with 10% FBS, 1 mM L-glutamine, 100 units/mL penicillin, 100 ug/mL streptomycin and 400 μg/mL G418. Cells were maintained in 5% CO2 at 37° C. At 24 hrs prior to assay, cells were seeded in clear-base poly-D-lysine coated 384-well plates (BD Biosciences, NJ, USA) at a density of 5,000 cells per well in culture medium and grown overnight in 5% CO2 at 37° C. On assay day, growth media was removed and cells were loaded with Calcium 3 Dye (Molecular Devices) for 35 min at 37° C., under 5% CO2 and then for 25 min at room temperature and atmosphere. Subsequently, cells were tested for agonist-induced increases in intracellular Ca^2+ levels using FLIPR™ or FDSS. Cells were challenged with a compound of Formula (I) (at varying concentrations) and intracellular Ca^2+ was measured for 5 min prior to the addition of icilin to all wells to achieve a final concentration which produces approximately an 80% maximal response.
Basal FI was subtracted prior to normalizing data to percent of maximal response. Curves were generated using the average of quadruplicate wells for each data point, were analyzed using nonlinear regression of either sigmoidal dose response or sigmoidal dose response (variable slope). Finally, the EC50 and IC50 values were calculated with the best-fit dose curve determined by GraphPad Prism.

T1 sequence (Q1A7N1 1-1104): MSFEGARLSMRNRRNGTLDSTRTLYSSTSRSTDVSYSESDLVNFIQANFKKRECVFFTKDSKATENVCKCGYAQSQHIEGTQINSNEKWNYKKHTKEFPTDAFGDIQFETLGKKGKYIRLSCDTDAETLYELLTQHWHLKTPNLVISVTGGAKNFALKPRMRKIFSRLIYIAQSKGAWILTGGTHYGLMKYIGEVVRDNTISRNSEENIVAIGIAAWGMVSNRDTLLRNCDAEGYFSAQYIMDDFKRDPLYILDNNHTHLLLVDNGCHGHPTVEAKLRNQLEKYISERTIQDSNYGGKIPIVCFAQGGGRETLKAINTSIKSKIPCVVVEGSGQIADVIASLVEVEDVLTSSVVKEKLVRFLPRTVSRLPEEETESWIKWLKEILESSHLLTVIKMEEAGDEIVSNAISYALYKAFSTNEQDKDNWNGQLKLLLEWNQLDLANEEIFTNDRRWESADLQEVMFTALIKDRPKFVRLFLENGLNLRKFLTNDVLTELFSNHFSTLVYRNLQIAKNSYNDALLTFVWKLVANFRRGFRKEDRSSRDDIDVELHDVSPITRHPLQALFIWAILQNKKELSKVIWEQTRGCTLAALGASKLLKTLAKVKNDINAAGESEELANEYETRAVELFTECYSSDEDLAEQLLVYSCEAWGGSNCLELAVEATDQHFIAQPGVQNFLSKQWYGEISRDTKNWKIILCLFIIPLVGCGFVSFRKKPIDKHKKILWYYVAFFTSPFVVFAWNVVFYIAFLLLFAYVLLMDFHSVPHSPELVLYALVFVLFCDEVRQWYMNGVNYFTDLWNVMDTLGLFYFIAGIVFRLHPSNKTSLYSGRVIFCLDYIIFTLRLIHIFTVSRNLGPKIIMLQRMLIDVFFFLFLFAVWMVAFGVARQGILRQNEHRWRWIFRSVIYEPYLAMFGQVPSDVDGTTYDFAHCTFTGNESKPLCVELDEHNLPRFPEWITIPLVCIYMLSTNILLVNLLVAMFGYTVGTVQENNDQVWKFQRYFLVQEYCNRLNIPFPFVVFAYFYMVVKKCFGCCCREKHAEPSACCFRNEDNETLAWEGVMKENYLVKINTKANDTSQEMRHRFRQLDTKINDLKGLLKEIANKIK

CCOP(=O)(OCC)C(Cc1ccc(OC)c(C(F)(F)F)c1)c1sc2ccccc2c1Br (stereo not drawn) [Cpd 152]
IC50: 54 nM and 50 nM | % I (0.5 μM): 102% and 92%

CCOP(=O)(OCC)C(Cc1ccc(F)c(F)c1)c1sc2ccccc2c1-c1ccccc1F (stereo not drawn) [Cpd 216]
IC50: 126 nM | % I (0.5 μM): 100%

CCOP(=O)(OCC)C(Cc1ccc(F)c(F)c1)c1sc2cccc(F)c2c1Br (stereo not drawn) [Cpd 224]
IC50: 44 nM | % I (0.5 μM): 102%

CC(C)OP(=O)(OC(C)C)C(Cc1ccc(SC(F)(F)F)cc1)c1sc2ccccc2c1Cl (stereo not drawn) [Cpd 304]
IC50: 28 nM | % I (0.5 μM): 102%

CC(C)OP(=O)(OC(C)C)C(Cc1ccc(F)c(F)c1)c1oc2cccc(F)c2c1Br (stereo not drawn) [Cpd 205]
IC50: 50 nM | % I (1 μM): 101%

CCOP(=O)(OCC)C(Cc1ccc(F)c(F)c1)c1sc2ccc(F)cc2c1C (stereo not drawn) [Cpd 45, [2-(3,4-Difluoro-phenyl)-1-(5-fluoro-3-methyl-benzo[b]thiophene-2-yl)-ethyl]-phosphonic acid diethyl ester]
% I (1 μM): 100%

CCOP(=O)(OCC)C(Cc1ccccc1C(F)(F)F)c1sc2ccccc2c1Cl (stereo not drawn) [Cpd 279]
IC50: 291 nM | % I (0.5 μM): 97%

CCOP(=O)(OCC)C(Cc1cccc(OC(F)(F)F)c1)c1sc2ccccc2c1Br (stereo not drawn) [Cpd 145]
IC50: 119 nM and 116 nM | % I (0.5 μM): 103, % and 102%

CCOP(=O)(OCC)C(Cc1ccccc1C)c1sc2ccccc2c1C (racemic) [Cpd 26]
IC50: 108 nM | % I (1 μM): 100%

CCOP(=O)(OCC)C(Cc1ccc(F)c(F)c1)c1sc2ccccc2c1-c1ccc(F)cc1 (stereo not drawn) [Cpd 220]
IC50: 207 nM | % I (0.5 μM): 101%

CCOP(=O)(OCC)C(Cc1ccc(F)c(OC)c1)c1sc2ccccc2c1Br (stereo not drawn) [Cpd 156]
% I (0.5 μM): 103%

CC(C)OP(=O)(OC(C)C)C(Cc1ccc(C(F)(F)F)cc1F)c1sc2ccccc2c1Br (stereo not drawn) [Cpd 289]
IC50: 51 nM | % I (0.5 μM): 103%

CCOP(=O)(OCC)C(Cc1c(F)c(F)c(O)c(F)c1F)c1sc2ccccc2c1Br (stereo not drawn) [Cpd 228]
IC50: 129 nM | % I (0.5 μM): 94%

CCOP(=O)(OCC)C(Cc1ccc(C(F)(F)F)cc1F)c1sc2ccccc2c1Br (stereo not drawn) [Cpd 150]
IC50: 90 nM | % I (0.5 μM): 103%

CC(C)OP(=O)(OC(C)C)C(Cc1cc(O)c(Cl)cc1F)c1sc2ccccc2c1Br (stereo not drawn) [Cpd 232]
IC50: 63 nM | % I (0.5 μM): 99%

CCOP(=O)(OCC)C(Cc1ccc(S(=O)(=O)C(F)(F)F)cc1)c1sc2ccccc2c1Cl (stereo not drawn) [Cpd 300]
IC50: 89 nM | % I (0.5 μM): 103%

CCOP(=O)(OCC)C(Cc1cccc(C(F)(F)F)c1Cl)c1sc2ccccc2c1Br (stereo not drawn) [Cpd 151]
IC50: 120 nM | % I (0.5 μM): 103%

CC(C)OP(=O)(OC(C)C)C(Cc1ccc(F)c(C(F)(F)F)c1)c1sc2cccc(F)c2c1Br (stereo not drawn) [Cpd 222]
IC50: 33 nM | % I (0.5 μM): 103%

CCOP(=O)(OCC)C(Cc1ccccc1Cl)c1sc2ccccc2c1C (racemic) [Cpd 48]
IC50: 169 nM | % I (1 μM): 100%

CCOP(=O)(OCC)C(Cc1cccc(Cl)c1)c1sc2ccccc2c1Cl (stereo not drawn) [Cpd 290]
IC50: 115 nM | % I (0.5 μM): 103%

CCOP(=O)(OCC)C(Cc1cccc(C(F)(F)F)c1F)c1sc2ccccc2c1C (racemic) [Cpd 37]
IC50: 127 nM | % I (1 μM): 100%

CCOP(=O)(OCC)C(Cc1ccc(C(F)(F)F)cc1F)c1sc2ccccc2c1Cl (stereo not drawn) [Cpd 291]
IC50: 156 nM | % I (0.5 μM): 103%

CCOP(=O)(OCC)C(Cc1cccc(SC(F)(F)F)c1)c1sc2ccccc2c1Cl (stereo not drawn) [Cpd 296]
IC50: 137 nM | % I (0.5 μM): 102%

CCOP(=O)(OCC)C(Cc1cc(Cl)ccc1Cl)c1sc2ccccc2c1C (racemic) [Cpd 47]
IC50: 167 nM | % I (1 μM): 100%

CC(C)OP(=O)(OC(C)C)C(Cc1cc(Cl)ccc1F)c1sc2ccccc2c1Br (stereo not drawn) [Cpd 308]
IC50: 17 nM | % I (0.5 μM): 103%

CC(C)OP(=O)(OC(C)C)C(Cc1ccc(F)c(Cl)c1)c1sc2ccccc2c1Br (stereo not drawn) [Cpd 248]
IC50: 21 nM | % I (0.5 μM): 104%

Cc1c(C(Cc2ccc(F)c(F)c2)P(=O)(OC(C)C)OC(C)C)oc2ccccc12 (racemic) [Cpd 11]
IC50: 43 nM and 47 nM | % I (1 μM): 99% and 103%

CCOP(=O)(OCC)C(Cc1cc(Cl)ccc1F)c1sc2ccccc2c1Cl (stereo not drawn) [Cpd 305]
IC50: 70 nM | % I (0.5 μM): 102%

CCOP(=O)(OCC)C(Cc1cccc(C(F)(F)F)c1)c1cc2ccccc2s1 (racemic) [Cpd 39]
IC50: 141 nM | % I (1 μM): 100%

CCOP(=O)(Cc1cc2ccccc2s1)OCc1ccccc1F (stereo not drawn) [Cpd 109, Benzo[b]thiophen-2-ylmethyl-phosphonic acid ethyl ester 2-fluoro-benzyl ester]
% I (1 μM): 17%

CCOP(=O)(OCC)C(Cc1cc(C(F)(F)F)ccc1F)c1sc2ccccc2c1Br (stereo not drawn) [Cpd 146]
IC50: 100 nM | % I (0.5 μM): 103%

CCOP(=O)(OCC)C(Cc1cc(O)c(Cl)cc1F)c1sc2ccccc2c1Br (stereo not drawn) [Cpd 231]
IC50: 122 nM | % I (0.5 μM): 98%

CCOP(=O)(OCC)C(Cc1cc(C(F)(F)F)cc(C(F)(F)F)c1)c1sc2ccccc2c1Cl (stereo not drawn) [Cpd 282]
IC50: 235 nM | % I (0.5 μM): 100%

CC(C)OP(=O)(OC(C)C)C(Cc1ccc(F)c(F)c1)c1sc2ccccc2c1C1CCCC1 (racemic) [Cpd 38]
IC50: 140 nM | % I (1 μM): 99%

CCOP(=O)(OCC)C(Cc1ccc(OC(F)(F)F)c(Cl)c1)c1sc2ccccc2c1Br (stereo not drawn) [Cpd 149]
IC50: 60 nM | % I (0.5 μM): 103%

CCOP(=O)(OCC)C(Cc1cccc(Br)c1)c1sc2ccccc2c1Br (stereo not drawn) [Cpd 295]
IC50: 31 nM and 16 nM | % I (0.5 μM): 102% and 103%

CCOP(=O)(OCC)C(Cc1ccc(Cl)cc1)c1sc2ccccc2c1Cl (stereo not drawn) [Cpd 293]
IC50: 156 nM | % I (0.5 μM): 103%

CCOP(=O)(OCC)C(C)(Cc1ccc(F)c(F)c1)c1sc2ccccc2c1C (stereo not drawn) [Cpd 79, [2-(3,4-Difluoro-phenyl)-1-methyl-1-(3-methyl-benzo[b]-thiophen-2-yl)-ethyl]-phosphonic acid diethyl ester]
% I (1 μM): 88%

CC(C)CCOP(=O)(OCCC(C)C)C(Cc1ccc(F)c(F)c1)c1sc2ccccc2c1Br (stereo not drawn) [Cpd 211]
IC50: 95 nM | % I (0.5 μM): 97%

CCOP(=O)(OCC)C(Cc1ccc(OC)c(F)c1)c1sc2ccccc2c1Br (stereo not drawn) [Cpd 158]
IC50: 59 nM | % I (0.5 μM): 101%

CCOP(=O)(Cc1cc2ccccc2s1)OCc1ccccc1Cl (stereo not drawn) [Cpd 105]
IC50: 1010 nM | % I (1 μM): 48% | % I (5 μM) (compound at 5 μM): 100%

CCOP(=O)(OCC)C(Cc1ccc(C(F)(F)F)c(F)c1)c1sc2ccccc2c1Br (stereo not drawn) [Cpd 144]
IC50: 58 nM | % I (0.5 μM): 101%

CCOP(=O)(OCC)C(Cc1ccc(SC(F)(F)F)cc1)c1sc2ccccc2c1Cl (stereo not drawn) [Cpd 283]
IC50: 125 nM | % I (0.5 μM): 103%

CC(C)OP(=O)(OC(C)C)C(Cc1cccc(Cl)c1)c1sc2ccccc2c1Br (stereo not drawn) [Cpd 166]
IC50: 18 nM and 14 nM | % I (0.5 μM): 102% | % I (1 μM): 103%

CCOP(=O)(Cc1cc2ccccc2s1)OCc1c(Cl)cccc1Cl (stereo not drawn) [Cpd 94, Benzo[b]thiophen-2-ylmethyl-phosphonic acid 2,6-dichloro-benzyl ester ethyl ester]
% I (1 μM): 79%

CC(C)OP(=O)(OC(C)C)C(Cc1ccc(Cl)c(C(F)(F)F)c1)c1sc2ccccc2c1Cl (stereo not drawn) [Cpd 167]
IC50: 97 nM | % I (0.5 μM): 104%

CCOP(=O)(OCC)C(Cc1ccc2ccccc2c1)c1sc2ccccc2c1C (racemic) [Cpd 46]
IC50: 167 nM | % I (1 μM): 99%

CCOP(=O)(Cc1cc2ccccc2s1)OCc1ccccc1C (stereo not drawn) [Cpd 104, Benzo[b]thiophen-2-ylmethyl-phosphonic acid ethyl ester 2-methyl-benzyl ester]
% I (1 μM): 53%

CCOP(=O)(OCC)C(Cc1ccc(F)cc1C(F)(F)F)c1sc2ccccc2c1Br (stereo not drawn) [Cpd 245]
IC50: 124 nM | % I (0.5 μM): 103%

CCOP(=O)(OCC)C(Cc1ccc(F)c(F)c1)c1sc2c(F)cccc2c1C (stereo not drawn) [Cpd 8, [2-(3,4-Difluoro-phenyl)-1-(7-fluoro-3-methyl-benzo[b-]thiophene-2-yl)-ethyl]-phosphonic acid diethyl ester]
% I (1 μM): 100%

CCOP(=O)(OCC)C(Cc1ccc(F)c(C(F)(F)F)c1)c1sc2ccccc2c1Cl (stereo not drawn) [Cpd 294]
IC50: 118 nM | % I (0.5 μM): 103%

CC(C)OP(=O)(OC(C)C)C(Cc1ccc(F)c(F)c1)c1sc2ncccc2c1Br (stereo not drawn) [Cpd 207]
IC50: 51 nM | % I (0.5 μM): 99%

CCOP(=O)(OCC)C(Cc1ccc(F)c(F)c1)c1sc2ccccc2c1-c1cccc(C(N)=O)c1 (stereo not drawn) [Cpd 218]
IC50: 483 nM | % I (0.5 μM): 79%

CC(C)OP(=O)(OC(C)C)C(Cc1ccc(Cl)cc1)c1sc2ccccc2c1Br (stereo not drawn) [Cpd 288]
IC50: 65 nM | % I (0.5 μM): 103%

CCOP(=O)(OCC)C(Cc1cccc(Cl)c1F)c1sc2ccccc2c1Br (stereo not drawn) [Cpd 143]
IC50: 67 nM | % I (0.5 μM): 101%
